From paper PMC7581365, “Structural features and development of an assay platform of the parasite target deoxyhypusine synthase of Brugia malayi and Leishmania major” (PLoS Neglected Tropical Diseases, 2020) come the findings set out here.

The target in data set [1] is T1, Deoxyhypusine synthase (BmDHS) (Brugia malayi, UniProt A0A0J9XTC4).
T1 construct: gene bma-dhps-1; full-length, recombinant BmDHS (residues 1–366)
T1 sequence (A0A0J9XTC4 1-366): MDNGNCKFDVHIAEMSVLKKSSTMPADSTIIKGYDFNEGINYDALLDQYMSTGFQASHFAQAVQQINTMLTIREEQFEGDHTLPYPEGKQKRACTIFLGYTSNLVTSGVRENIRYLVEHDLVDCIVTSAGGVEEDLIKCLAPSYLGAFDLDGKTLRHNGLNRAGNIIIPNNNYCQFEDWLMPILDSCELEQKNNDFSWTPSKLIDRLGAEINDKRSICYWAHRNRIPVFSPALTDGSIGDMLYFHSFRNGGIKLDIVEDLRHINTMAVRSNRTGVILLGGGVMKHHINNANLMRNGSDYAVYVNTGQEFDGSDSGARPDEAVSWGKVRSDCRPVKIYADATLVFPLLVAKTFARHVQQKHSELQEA
Put plainly: NADH fluorescence assay of DHS partial reaction with purified recombinant enzyme. The class given is biochemical.

Data set [2] deals with the molecule itself. Put plainly: SEC; analytical gel filtration, Superdex 200 Increase 10/300, 900 ug purified BmDHS; 20 mM HEPES pH 7.5, 300 mM NaCl, 5% glycerol, 0.5 mM TCEP; calibrated with protein standards (Kav against log mass).

As a reminder, the IC50 is the concentration that gives 50% inhibition. For `N=C(N)NCCCCCCCN` [GC7], in data set [1], the IC50 was determined as 28 nM.

B1: Brugia malayi deoxyhypusine synthase (BmDHS), full-length recombinant protein (enzyme)
chain: SMDNGNCKFDVHIAEMSVLKKSSTMPADSTIIKGYDFNEGINYDALLDQYMSTGFQASHFAQAVQQINTMLTIREEQFEGDHTLPYPEGKQKRACTIFLGYTSNLVTSGVRENIRYLVEHDLVDCIVTSAGGVEEDLIKCLAPSYLGAFDLDGKTLRHNGLNRAGNIIIPNNNYCQFEDWLMPILDSCELEQKNNDFSWTPSKLIDRLGAEINDKRSICYWAHRNRIPVFSPALTDGSIGDMLYFHSFRNGGIKLDIVEDLRHINTMAVRSNRTGVILLGGGVMKHHINNANLMRNGSDYAVYVNTGQEFDGSDSGARPDEAVSWGKVRSDCRPVKIYADATLVFPLLVAKTFARHVQQKHSELQEA
notes: additional N-terminal serine residue introduced by the cloning strategy and left over after TEV cleavage of the poly-His tag; Deoxyhypusine synthase of Brugia malayi, encoded by bma-DHPS-1, full-length enzyme, residues 1-366; Expressed from pNIC28-Bsa4; Molecular weight by LC-MS 41,083.5 Da; also called B. malayi (Bm)DHS; filarial worm DHS; source: E. coli BL21(DE3)-R3-pRARE2, purified (HisTrap …)
The stoichiometry N is the number of molecules, sites or subunits per partner or assembly. For B1, the “stoichiometry N” value in data set [2] amounted to 4.
